How the values were obtained:
[1] = tested on: Mycobacterium tuberculosis Erdman (autoluminescent); test: AUC25, normalised area under dose response up to IC25 (three-drug combination) (fraction (0-1)); higher = more potent at low dose
Method: (§1)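 DiaMOND equipotent three-drug combination dose responses (10 doses, 1.5- or 2-fold spacing, centred on IC90) against autoluminescent M. tuberculosis Erdman in 8 in vitro models. Read-out is OD600, or luminescence for the intracellular and dormancy models, normalised to untreated wells. Hill-fit Einf, AUC25 and GRinf are potency metrics; FIC50 and FIC90 are total Loewe fractional inhibitory concentrations as log2 (negative = synergy).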

[2] = tested on: Mycobacterium tuberculosis Erdman (autoluminescent); test: GRinf, maximum normalised growth rate inhibition (three-drug combination) (unitless (-1 to 1)); higher = less effect (negative = killing)
Method: as §1

[3] = tested on: Mycobacterium tuberculosis Erdman (autoluminescent); test: total FIC90 (Loewe) at 90% inhibition, three-drug combination (log2); higher = more antagonistic
Method: as §1

[4] = tested on: Mycobacterium tuberculosis Erdman (autoluminescent); test: total FIC50 (Loewe) at 50% inhibition, three-drug combination (log2); higher = more antagonistic
Method: as §1

[5] = tested on: Mycobacterium tuberculosis Erdman (autoluminescent); test: Einf, fitted maximum growth inhibition of three-drug combination (fraction); higher = stronger maximal inhibition
Method: as §1

CC[C@@H](CO)NCCN[C@@H](CC)CO [ethambutol] + NC(=O)c1cnccn1 [pyrazinamide] + CO[C@H]1/C=C/O[C@@]2(C)Oc3c(C)c(O)c4c(O)c(c(/C=N/N5CCN(C6CCCC6)CC5)c(O)c4c3C2=O)NC(=O)/C(C)=C\C=C\[C@H](C)[C@H](O)[C@@H](C)[C@@H](O)[C@@H](C)[C@H](OC(C)=O)[C@@H]1C [rifapentine]
Settings	AUC25, [1]	Einf, [5]	GRinf, [2]	total FIC50, [4]	total FIC90, [3]
in vitro model: acidic pH 5.7, time point: constant (~7 days, model-specific)	0.0954	0.885	-0.165	-0.399	–
in vitro model: acidic pH 5.7, time point: terminal (~4-5 doublings, model-specific)	0.0652	0.98	-0.191	-0.0475	–
in vitro model: intracellular J774, time point: constant = terminal	–	0.977	-0.419	–	-1.88

Settings	AUC25, [1]	Einf, [5]	GRinf, [2]	total FIC50, [4]	total FIC90, [3]
in vitro model: butyrate, time point: constant (~7 days, model-specific)	0.0808	0.911	0.0172	0.221	–
in vitro model: butyrate, time point: terminal (~4-5 doublings, model-specific)	0.0667	0.958	0.025	0.309	-0.154
in vitro model: cholesterol 0.05 mM, time point: constant (~7 days, model-specific)	0.116	0.659	-0.834	–	–
in vitro model: cholesterol 0.05 mM, time point: terminal (~4-5 doublings, model-specific)	0.11	0.886	-0.315	1.58	–
in vitro model: cholesterol-high 0.2 mM, time point: constant (~7 days, model-specific)	0.0322	0.941	-0.414	1.2	–
in vitro model: cholesterol-high 0.2 mM, time point: terminal (~4-5 doublings, model-specific)	0.0395	0.999	-0.679	1.46	1.21
in vitro model: dormancy (butyrate + nitrate, low O2), time point: constant (~7 days, model-specific)	0.0922	0.87	0.301	-0.0129	–
in vitro model: dormancy (butyrate + nitrate, low O2), time point: terminal (~4-5 doublings, model-specific)	0.116	0.984	-0.233	0.284	1.88
in vitro model: standard 7H9 glycerol, time point: constant = terminal	0.0407	0.883	0.165	0.158	–
in vitro model: valerate, time point: constant (~7 days, model-specific)	0.0408	0.821	0.114	0.105	–
in vitro model: valerate, time point: terminal (~4-5 doublings, model-specific)	0.0268	0.909	0.11	0.338	-0.692

CC[C@@H](CO)NCCN[C@@H](CC)CO [ethambutol] + NC(=O)c1cnccn1 [pyrazinamide] + CO[C@H]1/C=C/O[C@@]2(C)Oc3c(C)c(O)c4c(O)c(c(/C=N/N5CCN(C)CC5)c(O)c4c3C2=O)NC(=O)/C(C)=C\C=C\[C@H](C)[C@H](O)[C@@H](C)[C@@H](O)[C@@H](C)[C@H](OC(C)=O)[C@@H]1C [rifampicin]
Settings	AUC25, [1]	Einf, [5]	GRinf, [2]	total FIC50, [4]	total FIC90, [3]
in vitro model: acidic pH 5.7, time point: constant (~7 days, model-specific)	0.0703	0.91	-0.349	-0.177	–
in vitro model: acidic pH 5.7, time point: terminal (~4-5 doublings, model-specific)	0.0348	0.982	-0.218	0.428	-0.924
in vitro model: intracellular J774, time point: constant = terminal	–	0.966	-0.396	–	-2.06

Settings	AUC25, [1]	Einf, [5]	GRinf, [2]	total FIC50, [4]	total FIC90, [3]
in vitro model: butyrate, time point: constant (~7 days, model-specific)	0.0895	0.919	0.0103	0.151	–
in vitro model: butyrate, time point: terminal (~4-5 doublings, model-specific)	0.0793	0.964	0.024	0.114	-0.38
in vitro model: cholesterol 0.05 mM, time point: constant (~7 days, model-specific)	0.089	0.596	0.0152	–	–
in vitro model: cholesterol 0.05 mM, time point: terminal (~4-5 doublings, model-specific)	0.105	0.954	-0.297	1.25	–
in vitro model: cholesterol-high 0.2 mM, time point: constant (~7 days, model-specific)	0.0452	0.964	-0.34	1.12	–
in vitro model: cholesterol-high 0.2 mM, time point: terminal (~4-5 doublings, model-specific)	0.043	0.995	-0.69	1.15	0.828
in vitro model: dormancy (butyrate + nitrate, low O2), time point: constant (~7 days, model-specific)	0.134	0.906	0.291	-1.12	–
in vitro model: dormancy (butyrate + nitrate, low O2), time point: terminal (~4-5 doublings, model-specific)	0.0829	0.989	-0.155	-0.532	0.414
in vitro model: standard 7H9 glycerol, time point: constant = terminal	0.0436	0.897	0.134	0.0958	–
in vitro model: valerate, time point: constant (~7 days, model-specific)	0.0382	0.854	0.143	0.23	–
in vitro model: valerate, time point: terminal (~4-5 doublings, model-specific)	0.0278	0.92	0.0943	0.205	-0.873

CC[C@@H](CO)NCCN[C@@H](CC)CO [ethambutol] + NNC(=O)c1ccncc1 [isoniazid] + CC(=O)NC[C@H]1CN(c2ccc(N3CCOCC3)c(F)c2)C(=O)O1 [linezolid]
Settings	AUC25, [1]	Einf, [5]	GRinf, [2]	total FIC50, [4]	total FIC90, [3]
in vitro model: acidic pH 5.7, time point: constant (~7 days, model-specific)	0.108	0.831	-0.311	0.672	–
in vitro model: acidic pH 5.7, time point: terminal (~4-5 doublings, model-specific)	0.0511	0.939	-0.218	1.64	0.241
in vitro model: intracellular J774, time point: constant = terminal	–	0.958	-0.189	–	-0.0766

Settings	AUC25, [1]	Einf, [5]	GRinf, [2]	total FIC50, [4]	total FIC90, [3]
in vitro model: butyrate, time point: constant (~7 days, model-specific)	0.101	0.9	0.0696	0.578	–
in vitro model: butyrate, time point: terminal (~4-5 doublings, model-specific)	0.0839	0.943	0.0902	0.593	1.01
in vitro model: cholesterol 0.05 mM, time point: constant (~7 days, model-specific)	0.148	0.693	-0.305	-0.315	–
in vitro model: cholesterol 0.05 mM, time point: terminal (~4-5 doublings, model-specific)	0.166	0.918	-0.286	-1.8	–
in vitro model: cholesterol-high 0.2 mM, time point: constant (~7 days, model-specific)	0.102	0.925	-0.717	0.686	–
in vitro model: cholesterol-high 0.2 mM, time point: terminal (~4-5 doublings, model-specific)	0.121	1	-0.966	0.382	1.42
in vitro model: dormancy (butyrate + nitrate, low O2), time point: constant (~7 days, model-specific)	0.117	0.801	0.434	0.669	–
in vitro model: dormancy (butyrate + nitrate, low O2), time point: terminal (~4-5 doublings, model-specific)	0.1	0.971	-0.188	0.326	0.438
in vitro model: standard 7H9 glycerol, time point: constant = terminal	0.0661	0.911	0.099	0.88	–
in vitro model: valerate, time point: constant (~7 days, model-specific)	0.127	0.91	-0.184	0.573	–
in vitro model: valerate, time point: terminal (~4-5 doublings, model-specific)	0.0732	0.944	-0.0217	0.769	0.881

CC[C@@H](CO)NCCN[C@@H](CC)CO [ethambutol] + NNC(=O)c1ccncc1 [isoniazid] + CO[C@H]1/C=C/O[C@@]2(C)Oc3c(C)c(O)c4c(O)c(c(/C=N/N5CCN(C6CCCC6)CC5)c(O)c4c3C2=O)NC(=O)/C(C)=C\C=C\[C@H](C)[C@H](O)[C@@H](C)[C@@H](O)[C@@H](C)[C@H](OC(C)=O)[C@@H]1C [rifapentine]
Settings	AUC25, [1]	Einf, [5]	GRinf, [2]	total FIC50, [4]	total FIC90, [3]
in vitro model: acidic pH 5.7, time point: constant (~7 days, model-specific)	0.116	0.926	-0.233	-0.0354	–
in vitro model: acidic pH 5.7, time point: terminal (~4-5 doublings, model-specific)	0.0443	0.974	-0.12	0.316	-0.0587
in vitro model: intracellular J774, time point: constant = terminal	–	0.961	-0.299	–	-1.77

Settings	AUC25, [1]	Einf, [5]	GRinf, [2]	total FIC50, [4]	total FIC90, [3]
in vitro model: butyrate, time point: constant (~7 days, model-specific)	0.0656	0.919	-0.00839	0.419	–
in vitro model: butyrate, time point: terminal (~4-5 doublings, model-specific)	0.0504	0.961	0.0115	0.431	-0.175
in vitro model: cholesterol 0.05 mM, time point: constant (~7 days, model-specific)	0.0782	0.62	0.0218	0.251	–
in vitro model: cholesterol 0.05 mM, time point: terminal (~4-5 doublings, model-specific)	0.0679	0.705	0.236	0.672	–
in vitro model: cholesterol-high 0.2 mM, time point: constant (~7 days, model-specific)	0.0261	0.963	-0.465	1.28	–
in vitro model: cholesterol-high 0.2 mM, time point: terminal (~4-5 doublings, model-specific)	0.0378	1	-0.581	1.47	1.31
in vitro model: dormancy (butyrate + nitrate, low O2), time point: constant (~7 days, model-specific)	0.123	0.85	0.351	0.273	–
in vitro model: dormancy (butyrate + nitrate, low O2), time point: terminal (~4-5 doublings, model-specific)	0.118	0.99	-0.216	0.00837	0.792
in vitro model: standard 7H9 glycerol, time point: constant = terminal	0.0469	0.904	0.0971	0.347	–
in vitro model: valerate, time point: constant (~7 days, model-specific)	0.0468	0.866	0.0486	0.524	–
in vitro model: valerate, time point: terminal (~4-5 doublings, model-specific)	0.0336	0.929	0.0406	0.609	-0.125
